According to US8926966B1 (Regents of the University of California, priority 1990, dated 2015):
Where two headings read alike, the source gives them in different places.

Tests used:
splenic lymphocytes = experiment: ^3H-thymidine incorporation, splenic lymphocytes; type: cell-based
[1] = tested on: islet infiltrating T lymphocytes (IITLs); experiment: ^3H-thymidine incorporation, islet infiltrating T lymphocytes; type: cell-based
NOD mice [2] = experiment: Insulitis score after tolerization of NOD mice; type: in vivo, mouse; conditions: examined at 12 weeks
[3] = tested on: IDDM associated autoantibodies in sera; experiment: ELISA of sera on plate-bound human GAD65 peptides; type: binding; conditions: for number of IDDM (at risk, pre-IDDM, at onset) patients positive (X) for the peptide (unlabelled sum line): IDDM sera of Table 11
In short: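 Blinded, coded sera (1/300) bound 1 h at 37 °C to wells coated overnight at 4 °C with peptides (20 ug/ml, pH 9.6), BSA-blocked. Detection with HRP-goat anti-human IgG (1/600), read at 410 nm; positive when sample/negative-control OD410 ≥3.0.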

spleen cells of NOD mice [4] = experiment: Spleen cell proliferation (recall response to antigens) after tolerization of NOD mice; type: cell-based, mouse; conditions: tested at 12 weeks; for Spleen Cell Proliferation (SI ± SEM) GAD: recall antigen GAD; for Spleen Cell Proliferation (SI ± SEM) GAD Peptides #17: recall antigen GAD peptide #17; for Spleen Cell Proliferation (SI ± SEM) GAD Peptides #34: recall antigen GAD peptide #34; for Spleen Cell Proliferation (SI ± SEM) GAD Peptides #35: recall antigen GAD peptide #35; for Spleen Cell Proliferation (SI ± SEM) hsp Peptide: recall antigen hsp peptide; for Spleen Cell Proliferation (SI ± SEM) β-Gal: recall antigen β-Gal
Protocol: Incorporation of label was measured by liquid scintillation counting.

spleen cells of NOD mice [5] = experiment: Proliferative responses of NOD spleen cells to GAD peptides; type: cell-based, mouse; conditions: peptide 7 μM, 5-day culture
Protocol: The fine specificity of the anti-GAD T-cell response was mapped using a set of 38 peptides (numbered successively from the N-terminus) that were 20-23 amino acids (aa) long and span the entire GAD65 (Bu, et al., Proc. Natl. Acad. Sci., 89:2115-2119, 1992) sequence with 5aa overlaps (FIG. 10).
Peptides were present in cultures at 7 μM and the label was added during the last 16 hours of a 5-day culture. The peptides were synthesized using standard Fmoc chemistry and purified by reverse phase HPLC (Advanced Chemtech). The sequence of stimulatory peptides are shown below in Table 9.

[6] = tested on: IDDM autoantibodies in sera of human patients; experiment: Autoantibody reactivity with ^35S labeled GAD65 segments (immunoprecipitation, SDS-PAGE); type: binding; conditions: IDDM patient sera of Table 10
Description: Portions of human GAD65 cDNA were amplified by the polymerase chain reaction (PCR; Saiki, et al., Science, 239:487, 1988) to produce DNA segments encoding three polypeptide segments: amino acid residues 1-224 (segment A); 224-398 (segment B); and 398-585 (segment C). Each construct also contained a T7 promoter, a consensus sequence for the initiation of translation and an initiating methionine codon (Korak, M., J. Cell Biol., 108:229, 1989). Each PCR product was then trascribed in vitro with T7 RNA polymerase and translated in vitro in a rabbit reticulocyte cell-free system in the presence of ^35S-methionine, using conditions recommended by the supplier (Amersham Corp., Arlington Heights, Ill.). Each test serum (30 μl) was incubated with the resulting ^35S labeled-polypeptides. The bound peptides were isolated with PAS and analyzed by SDS-PAGE in 12% polyaacrylamide and autoradiography.

NOD mice [7] = experiment: GAD immunization of 8 week old NOD mice, IDDM onset; type: in vivo, mouse; conditions: 25 ug i.p. in IFA at 8 weeks, again every 6 weeks
Description: Breeder mice were purchased from Taconic Farms and housed under specific pathogen-free conditions. Only female NOD mice were used in this study. […] Insulitis is generally observed beginning at 4 weeks of age. […] The incidence of IDDM in female mice is 70-90% by one year of age.
Urine glucose levels were monitored twice weekly. After observing above normal glucose in urea, blood glucose levels were monitored twice weekly.

[8] = Table 8B: neonatal i.p. with IFA
[9] = Table 8C: i.v. at three weeks of age

ARFKMFPEVKEKGMAA [GAD65 (SEQ ID NO. 5)]
^3H-THYMIDINE INCORPORATION (cpm) BY LYMPHOID CELL POPULATION SPLEEN (splenic lymphocytes; 1 × 10^5 cells/well, 5 days culture): 23,300 cpm | ^3H-THYMIDINE INCORPORATION (cpm) BY LYMPHOID CELL POPULATION IITLs ([1]; 3 × 10^4 cells/well, 5 days culture with irradiated spleen cells): 9,500 cpm | IITL proliferative response relative to culture media or polio polypeptide ([1]; IITL population): 9 fold

EEILMHCQTTLKYAIKTGHP [Peptide 11]
Insultis Score (NOD mice [2]; Table 8B: neonatal female NOD mice, i.p. with IFA, scale 0-4): ≈2.5 | immunoreactivity of serum with GAD65 peptide ([3]; IDDM At Risk serum 825, 1/300 dilution): X (X = positive for immunoreactivity as defined by 00/background^3.0) | immunoreactivity of serum with GAD65 peptide ([3]; IDDM At Risk serum L.I., 1/300 dilution): b (b = borderline response (00/background ?2.5-2.9).) | number of IDDM (at risk, pre-IDDM, at onset) patients positive (X) for the peptide (unlabelled sum line) [3]: 2 | immunoreactivity of serum with GAD65 peptide ([3]; Pre-IDDM serum B.Y. (1), 1/300 dilution): X (X = positive for immunoreactivity as defined by 00/background^3.0) | immunoreactivity of serum with GAD65 peptide ([3]; Pre-IDDM serum J.B. (1), 1/300 dilution): b (b = borderline response (00/background ?2.5-2.9).) | immunoreactivity of serum with GAD65 peptide ([3]; Pre-IDDM serum J.B. (2), 1/300 dilution): b (b = borderline response (00/background ?2.5-2.9).) | immunoreactivity of serum with GAD65 peptide ([3]; Pre-IDDM serum R.S. (1), 1/300 dilution): b (b = borderline response (00/background ?2.5-2.9).) | immunoreactivity of serum with GAD65 peptide ([3]; Pre-IDDM serum R.S. (2), 1/300 dilution): b (b = borderline response (00/background ?2.5-2.9).) | Spleen Cell Proliferation (SI ± SEM) GAD (spleen cells of NOD mice [4]; [8]): 21.1 ± 2.2 SI | Spleen Cell Proliferation (SI ± SEM) GAD Peptides #17 (spleen cells of NOD mice [4]; [8]): 13.7 ± 1.5 SI | Spleen Cell Proliferation (SI ± SEM) GAD Peptides #34 (spleen cells of NOD mice [4]; [8]): 11.4 ± 1.5 SI | Spleen Cell Proliferation (SI ± SEM) GAD Peptides #35 (spleen cells of NOD mice [4]; [8]): 11.3 ± 0.7 SI | Spleen Cell Proliferation (SI ± SEM) hsp Peptide (spleen cells of NOD mice [4]; [8]): 13.3 ± 0.9 SI | Spleen Cell Proliferation (SI ± SEM) β-Gal (spleen cells of NOD mice [4]; [8]): 1.0 ± 0.1 SI | Spleen Cell Proliferation (SI ± SEM) GAD (spleen cells of NOD mice [4]; [9]): 12.1 ± 3.5 SI | Spleen Cell Proliferation (SI ± SEM) GAD Peptides #17 (spleen cells of NOD mice [4]; [9]): 6.9 ± 0.4 SI | Spleen Cell Proliferation (SI ± SEM) GAD Peptides #34 (spleen cells of NOD mice [4]; [9]): 6.4 ± 1.0 SI | Spleen Cell Proliferation (SI ± SEM) GAD Peptides #35 (spleen cells of NOD mice [4]; [9]): 6.8 ± 0.3 SI | Spleen Cell Proliferation (SI ± SEM) hsp Peptide (spleen cells of NOD mice [4]; [9]): 8.7 ± 0.9 SI | Spleen Cell Proliferation (SI ± SEM) β-Gal (spleen cells of NOD mice [4]; [9]): 1.4 ± 0.4 SI

IPPSLRTLEDNEERMSRLSK [Peptide 34]
immunoreactivity of serum with GAD65 peptide ([3]; IDDM At Onset serum 048, 1/300 dilution): X (X = positive for immunoreactivity as defined by 00/background^3.0) | immunoreactivity of serum with GAD65 peptide ([3]; IDDM At Onset serum 291, 1/300 dilution): b (b = borderline response (00/background ?2.5-2.9).) | number of IDDM (at risk, pre-IDDM, at onset) patients positive (X) for the peptide (unlabelled sum line) [3]: 1 | age of NOD mice at first regularly detectable proliferative response (spleen cells of NOD mice [5]): 4 weeks

MKSMCPQAQLKVKYL [Poliovirus (SEQ ID NO. 4), reference compound]
^3H-THYMIDINE INCORPORATION (cpm) BY LYMPHOID CELL […] (splenic lymphocytes): 22,500 cpm | ^3H-THYMIDINE INCORPORATION (cpm) BY LYMPHOID CELL POPULATION IITLs [1]: 900 cpm

NMYAMMIARFKMFPEVKEKG [Peptide 17]
age of NOD mice at first regularly detectable proliferative response (spleen cells of NOD mice [5]): 5 weeks

SRLSKVAPVIKARMMEYGTT [Peptide 35]
number of IDDM (at risk, pre-IDDM, at onset) patients positive (X) for the peptide (unlabelled sum line) [3]: 1 | immunoreactivity of serum with GAD65 peptide ([3]; Pre-IDDM serum 723, 1/300 dilution): X (X = positive for immunoreactivity as defined by 00/background^3.0) | age of NOD mice at first regularly detectable proliferative response (spleen cells of NOD mice [5]): 4 weeks

Segment B: human GAD65 amino acid residues 224-398, in vitro translated, ^35S labeled
patients with antibodies reactive with the segment [6]: 41%

β-Gal.: E. coli β-galactosidase, control antigen purified from recombinant bacteria [reference compound]
Insultis Score (NOD mice [2]; Table 8A: female NOD mice, i.v. at 3 weeks of age, 50 μg (hsp-p 0.1 μg) in PBS, scale 0-4, mean ± SE): 2.6 ± 0.6 | mice that developed IDDM by 27 weeks in age (NOD mice [7]): 6/10 | mice remaining disease free at 52 weeks of age (NOD mice [7]; 10 mice per group): 2 | Spleen Cell Proliferation (SI ± SEM) CPH (spleen cells of NOD mice [4]; Table 8A: i.v. at 3 weeks, recall antigen CPH): 11.5 ± 0.9 SI | Spleen Cell Proliferation (SI ± SEM) GAD (spleen cells of NOD mice [4]; Table 8A: i.v. at 3 weeks): 15.4 ± 1.8 SI | Spleen Cell Proliferation (SI ± SEM) GAD Peptides #17 (spleen cells of NOD mice [4]; Table 8A: i.v. at 3 weeks): 5.1 ± 0.6 SI | Spleen Cell Proliferation (SI ± SEM) GAD Peptides #34 (spleen cells of NOD mice [4]; Table 8A: i.v. at 3 weeks): 5.1 ± 0.6 SI | Spleen Cell Proliferation (SI ± SEM) GAD Peptides #35 (spleen cells of NOD mice [4]; Table 8A: i.v. at 3 weeks): 4.0 ± 0.2 SI | Spleen Cell Proliferation (SI ± SEM) hsp Peptide (spleen cells of NOD mice [4]; Table 8A: i.v. at 3 weeks): 6.6 ± 0.5 SI | Spleen Cell Proliferation (SI ± SEM) β-Gal (spleen cells of NOD mice [4]; Table 8A: i.v. at 3 weeks): 1.1 ± 0.1 SI

B1: Segment A: human GAD65 amino acid residues 1-224, in vitro translated, ^35S labeled (protein)
chain: MASPGSGFWSFGSEDGSGDSENPGTARAWCQVAQKFTGGIGNKLCALLYGDAEKPAESGGSQPPRAAARKAACACDQKPCSCSKVDVNYAFLHATDLLPACDGERPTLAFLQDVMNILLQYVVKSFDRSTKVIDFHYPNELLQEYNWELADQPQNLEEILMHCQTTLKYAIKTGHPRYFNQLSTGLDMVGLAADWLTSTANTNMFTYEIAPVFVLLEYVTLKKM
patients with antibodies reactive with the segment [6]: none

B2: Segment C: human GAD65 amino acid residues 398-585, in vitro translated, ^35S labeled (protein)
chain: MMGVPLQCSALLVREEGLMQNCNQMHASYLFQQDKHYDLSYDTGDKALQCGRHVDVFKLWLMWRAKGTTGFEAHVDKCLELAEYLYNIIKNREGYEMVFDGKPQHTNVCFWYIPPSLRTLEDNEERMSRLSKVAPVIKARMMEYGTTMVSYQPLGDKVNFFRMVISNPAATHQDIDFLIEEIERLGQDL
patients with antibodies reactive with the segment [6]: 27%
